Measured values published in PubChem BioAssay (NCI).
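Cells were grown in 96-well plates and exposed to each compound for 48 hours at five concentrations; endpoints were interpolated linearly between bracketing concentrations, or set to the highest concentration if not reached. GI50 = concentration required for 50% inhibition of growth. TGI: concentration producing complete growth inhibition.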

Experiments:
Assay in all cases: NCI tumour cell line growth inhibition, 48 h
[1] = system: IGROV1 ovarian
[2] = system: CAKI-1 renal
[3] = system: HCC-2998 colon
[4] = system: SK-OV-3 ovarian
[5] = system: SNB-75 CNS
[6] = system: SR leukemia
[7] = system: LOX IMVI melanoma
[8] = system: A498 renal
[9] = system: NCI-H522 lung
[10] = system: CCRF-CEM leukemia

Row | SMILES | TGI [1] [µM] | TGI [2] [µM] | TGI [3] [µM] | TGI [4] [µM] | TGI [5] [µM] | TGI [6] [µM] | TGI [7] [µM] | TGI [8] [µM] | TGI [9] [µM] | TGI [10] [µM] | GI50 [3] [µM] | GI50 [4] [µM] | GI50 [5] [µM] | GI50 [6] [µM] | GI50 [7] [µM] | GI50 [8] [µM] | GI50 [9] [µM] | GI50 [10] [µM] | GI50 [1] [µM] | GI50 [2] [µM]
1 | CCOC(=N)/C(=C1\OC(N)=C(c2ccc(Cl)cc2)C1=O)c1ccc(Cl)cc1 | > 100 | 62.8 | 32.7 | > 100 | 38.5 | 56.5 | 28.1 | 32.5 | 29.4 | 65.6 | – | – | – | – | – | – | – | – | – | –
2 | CN1C(=O)C(=O)c2cc3c(c4c2c1cc1ccccc14)OCO3 | > 100 | > 100 | > 100 | > 100 | > 100 | 54.8 | 97.2 | > 100 | > 100 | > 100 | – | – | – | – | – | – | – | – | – | –
3 | O=C1OC(O)C(Oc2c(Cl)cccc2Cl)=C1Cl (stereo not drawn) | 46.2 | 48 | 37.9 | 43.5 | 54.6 | 54.1 | 34 | 51.1 | 27.3 | 53 | – | – | – | – | – | – | – | – | – | –
4 | COc1ccc(/C=N\Nc2ccc([N+](=O)[O-])cn2)cc1OC | – | – | > 100 | 24.3 | 16.4 | > 100 | > 100 | 59.6 | > 100 | > 100 | > 100 | 3.48 | 2.9 | > 100 | > 100 | 3.43 | > 100 | > 100 | – | –
5 | O=C(/C=C/c1ccccc1)n1c(-c2ccc(Cl)cc2)nc2ccccc21 | 4.63 | – | 3.45 | 5.71 | 3.77 | 1.88 | 1.91 | 2.56 | 2.64 | 3.45 | 1.8 | 2.43 | 1.44 | 0.379 | 0.588 | 1.17 | 1.23 | 0.731 | 1.95 | –
6 | O=c1[nH]c2cc(Cl)ccc2nc1/C(=N\O)C(O)c1ccc([N+](=O)[O-])cc1 (stereo not drawn) | > 100 | > 100 | > 100 | > 100 | > 100 | > 100 | > 100 | > 100 | – | > 100 | – | – | – | – | – | – | – | – | – | –
7 | Cc1cc(C)c(Cn2cnc3c(Cl)ncnc32)c(C)c1CCl | > 100 | – | 46.7 | > 100 | – | 47.4 | 8.69 | > 100 | > 100 | 95.2 | 19 | 53.7 | – | 12.7 | 0.652 | > 100 | > 100 | 24.9 | > 100 | –
8 | COc1cc(CNc2ccccc2C(=O)N2CCN(C(=O)c3cc(-c4cc(OC)c(OC)c(OC)c4)n4nc(-c5ccccc5)cc4n3)CC2)cc(OC)c1OC | > 100 | > 100 | > 100 | 38.4 | > 100 | > 100 | > 100 | 20.8 | > 100 | – | 5.8 | 4.42 | 1.98 | 0.581 | 4.86 | 2.15 | 2.22 | – | 7.73 | 1.39
9 | Cn1c2ccc(Br)cc2c2c3c(c4c5ccccc5[nH]c4c21)C(=O)N(O)C3=O | 1.07 | 0.885 | 1.57 | 0.773 | 0.425 | 2.64 | 0.193 | – | 0.286 | 0.956 | 0.473 | 0.265 | 0.164 | 0.0228 | 0.0537 | – | 0.0506 | 0.0412 | 0.262 | 0.22
10 | CN/N=C(\C)C(CN(C)C)C(c1ccccc1)c1c(O)c2ccccc2oc1=O (stereo not drawn) | > 100 | > 100 | > 100 | – | > 100 | > 100 | > 100 | > 100 | > 100 | > 100 | – | – | – | – | – | – | – | – | – | –
11 | Cc1cc(N2CCSCC2)nc(NC2CCCC(Nc3ccnc4cc(Cl)ccc34)C2)n1 (stereo not drawn) | 5.39 | – | 3.63 | 4.22 | 2.94 | 2.35 | – | 4.64 | – | 10.9 | 1.81 | 1.98 | 1.28 | 0.452 | – | 2.07 | – | 2.62 | 1.97 | –
12 | C=C(Nc1ccc([N+](=O)[O-])cc1[N+](=O)[O-])c1c/c(=N\NC(N)=S)c2ccccc2o1 | > 100 | > 100 | > 100 | > 100 | > 100 | 68.7 | > 100 | – | > 100 | > 100 | – | – | – | – | – | – | – | – | – | –
13 | O=C1C=CC(=O)c2cc(Sc3ccccc3)c(=O)ccc21 | 35 | – | 35.3 | 54.9 | 31.2 | 5.96 | 27.7 | 31.4 | 5.96 | 9.43 | – | – | – | – | – | – | – | – | – | –
14 | COC1=CC(=O)C2C(C1=O)C(c1ccccc1)[C@H]2C (stereo partly drawn) | > 100 | – | > 100 | > 100 | > 100 | > 100 | > 100 | > 100 | – | > 100 | – | – | – | – | – | – | – | – | – | –
15 | CCCCCCCCCCCCCCCCCC(=O)OCC(COC(=O)CCCN)OC(=O)CCCN (stereo not drawn) | 8.01 | 35.5 | 35.9 | 34.3 | > 100 | > 100 | 42.5 | – | 50.4 | > 100 | – | – | – | – | – | – | – | – | – | –
16 | CCc1cc(CCC(=O)Nc2c(C)cccc2C)[nH]n1 | > 100 | > 100 | > 100 | > 100 | > 100 | > 100 | – | > 100 | > 100 | > 100 | – | – | – | – | – | – | – | – | – | –
17 | CCC(CNc1cc(OC)cc2cccnc12)NC1CCCCC1 (stereo not drawn) | 44.9 | > 100 | 41.4 | > 100 | > 100 | 96.1 | > 100 | > 100 | – | – | 19.3 | > 100 | 21.3 | 24.5 | 28.6 | 29.7 | – | – | 10.6 | 21.9
18 | CCN(CC)CCCNC(=O)c1c2c(n3ccccc13)C(=O)c1ncccc1C2=O | – | – | 1.65 | 5.65 | 2.93 | > 100 | 1.8 | 3.27 | 2.32 | > 100 | 0.388 | 1.59 | 1.5 | 0.485 | 0.391 | 1.66 | 0.515 | 2.21 | – | –
19 | COc1cc(CNC2c3cc4c(cc3C(c3cc(OC)c(OC)c(OC)c3)[C@H]3C(=O)OCC23)OCO4)cc(OC)c1OC (stereo partly drawn) | > 100 | – | 13.1 | > 100 | > 100 | > 100 | > 100 | 0.762 | 0.262 | 40.9 | – | – | – | – | – | – | – | – | – | –
